Test system: genes specific for sensitization (BRAK, CTSS, DAPK2, FABP4, HSP27, IL18, HSP90, IL1R2, TPSAB1, CXCR1, DEFB1, DHFR, EHF, IVL, KRT4, MELANA, NGAL, PDZK1IP1, PI3 …)
Test: Expression of the other (non-ARE) sensitization-specific genes in EPISKIN reconstructed skin (quantitative RT-PCR);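 on CTSS NUMBER OF GENES grade: grade scored against expression in the control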;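 on CXCR1 NUMBER OF GENES grade: grade scored against expression in the control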;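 on DAPK2 NUMBER OF GENES grade: grade scored against expression in the control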
Type: cell-based, human

## O=CC=O [Glyoxal]
0.1%
  BRAK NUMBER OF GENES grade: 0 (if this expression is lower, the grade is 0)
  CTSS NUMBER OF GENES grade: 0 (if this expression is lower, the grade is 0)
  CXCR1 NUMBER OF GENES grade: 0 (if this expression is lower, the grade is 0)
  DAPK2 NUMBER OF GENES grade: 0 (if this expression is lower, the grade is 0)
  DEFB1 NUMBER OF GENES grade: 0 (if this expression is lower, the grade is 0)
  DHFR NUMBER OF GENES grade: 0 (if this expression is lower, the grade is 0)
  EHF NUMBER OF GENES grade: 0 (if this expression is lower, the grade is 0)
  FABP4 NUMBER OF GENES grade: 0 (if this expression is lower, the grade is 0)
  HSP27 NUMBER OF GENES grade: 0 (if this expression is lower, the grade is 0)
  HSP90 NUMBER OF GENES grade: 0 (if this expression is lower, the grade is 0)
  IL18 NUMBER OF GENES grade: 0 (if this expression is lower, the grade is 0)
  IVL NUMBER OF GENES grade: 0 (if this expression is lower, the grade is 0)
  KRT4 NUMBER OF GENES grade: 0 (if this expression is lower, the grade is 0)
  MELANA NUMBER OF GENES grade: 0 (if this expression is lower, the grade is 0)
  NGAL NUMBER OF GENES grade: 0 (if this expression is lower, the grade is 0)
  P13 NUMBER OF GENES grade: 0 (if this expression is lower, the grade is 0)
  PDZK1iP1 NUMBER OF GENES grade: 0 (if this expression is lower, the grade is 0)
  SENS >1.3 (number of genes): 0
  SERPINB3 NUMBER OF GENES grade: 0 (if this expression is lower, the grade is 0)
  TOTAL SENS (number of genes): 0
0.1%, compared to the control
  BRAK expression: 0.6
  CTSS expression: 1.0
  CXCR1 expression: 1.1
  DAPK2 expression: 0.9
  DEFB1 expression: 0.8
  DHFR expression: 0.9
  EHF expression: 0.8
  FABP4 expression: 0.4
  HSP27 expression: 0.7
  HSP90 expression: 1.0
  IL18 expression: 0.8
  IVL expression: 0.7
  KRT4 expression: 0.9
  MELANA expression: 0.5
  NGAL expression: 0.7
  P13 expression: 0.8
  PDZK1iP1 expression: 0.9
  SERPINB3 expression: 1.0
1%
  BRAK NUMBER OF GENES grade: 0 (if this expression is lower, the grade is 0)
  CTSS expression compared to control: 1.3
  CTSS grade (NUMBER OF GENES): 1 (If the expression is greater than 1.3 compared to the control, a grade of 11s given)
  CXCR1 expression compared to control: 1.6
  CXCR1 grade (NUMBER OF GENES): 1 (If the expression is greater than 1.3 compared to the control, a grade of 11s given)
  DAPK2 expression compared to control: 0.9
  DAPK2 grade (NUMBER OF GENES): 0 (if this expression is lower, the grade is 0)
  DEFB1 expression compared to control: 1.4
  DEFB1 grade (NUMBER OF GENES): 1 (If the expression is greater than 1.3 compared to the control, a grade of 11s given)
  DHFR NUMBER OF GENES grade: 0 (if this expression is lower, the grade is 0)
  EHF expression compared to control: 0.9
  EHF grade (NUMBER OF GENES): 0 (if this expression is lower, the grade is 0)
  FABP4 expression compared to control: 0.8
  FABP4 grade (NUMBER OF GENES): 0 (if this expression is lower, the grade is 0)
  HSP27 expression compared to control: 0.8
  HSP27 grade (NUMBER OF GENES): 0 (if this expression is lower, the grade is 0)
  HSP90 NUMBER OF GENES grade: 0 (if this expression is lower, the grade is 0)
  IL18 NUMBER OF GENES grade: 0 (if this expression is lower, the grade is 0)
  IVL expression compared to control: 1.7
  IVL grade (NUMBER OF GENES): 1 (If the expression is greater than 1.3 compared to the control, a grade of 11s given)
  KRT4 NUMBER OF GENES grade: 0 (if this expression is lower, the grade is 0)
  MELANA NUMBER OF GENES grade: 0 (if this expression is lower, the grade is 0)
  NGAL expression compared to control: 0.6
  NGAL grade (NUMBER OF GENES): 0 (if this expression is lower, the grade is 0)
  P13 expression compared to control: 1.4
  P13 grade (NUMBER OF GENES): 1 (If the expression is greater than 1.3 compared to the control, a grade of 11s given)
  PDZK1iP1 NUMBER OF GENES grade: 0 (if this expression is lower, the grade is 0)
  SENS >1.3 (number of genes): 6
  SERPINB3 NUMBER OF GENES grade: 0 (if this expression is lower, the grade is 0)
  TOTAL SENS (number of genes): 6
1%, compared to the control
  BRAK expression: 0.5
  DHFR expression: 0.9
  HSP90 expression: 1.1
  IL18 expression: 1.0
  KRT4 expression: 0.6
  MELANA expression: 1.1
  PDZK1iP1 expression: 1.0
  SERPINB3 expression: 1.1
10%
  BRAK NUMBER OF GENES grade: 0 (if this expression is lower, the grade is 0)
  CTSS expression compared to control: 2.2
  CTSS grade (NUMBER OF GENES): 1 (If the expression is greater than 1.3 compared to the control, a grade of 11s given)
  CXCR1 expression compared to control: 1.8
  CXCR1 grade (NUMBER OF GENES): 1 (If the expression is greater than 1.3 compared to the control, a grade of 11s given)
  DAPK2 expression compared to control: 0.9
  DAPK2 grade (NUMBER OF GENES): 0 (if this expression is lower, the grade is 0)
  DEFB1 expression compared to control: 1.6
  DEFB1 grade (NUMBER OF GENES): 1 (If the expression is greater than 1.3 compared to the control, a grade of 11s given)
  DHFR NUMBER OF GENES grade: 0 (if this expression is lower, the grade is 0)
  EHF expression compared to control: 0.9
  EHF grade (NUMBER OF GENES): 0 (if this expression is lower, the grade is 0)
  FABP4 expression compared to control: 0.8
  FABP4 grade (NUMBER OF GENES): 0 (if this expression is lower, the grade is 0)
  HSP27 expression compared to control: 0.8
  HSP27 grade (NUMBER OF GENES): 0 (if this expression is lower, the grade is 0)
  HSP90 NUMBER OF GENES grade: 1 (If the expression is greater than 1.3 compared to the control, a grade of 11s given)
  IL18 NUMBER OF GENES grade: 1 (If the expression is greater than 1.3 compared to the control, a grade of 11s given)
  IVL expression compared to control: 1.6
  IVL grade (NUMBER OF GENES): 1 (If the expression is greater than 1.3 compared to the control, a grade of 11s given)
  KRT4 NUMBER OF GENES grade: 1 (If the expression is greater than 1.3 compared to the control, a grade of 11s given)
  MELANA NUMBER OF GENES grade: 0 (if this expression is lower, the grade is 0)
  NGAL expression compared to control: 1.3
  NGAL grade (NUMBER OF GENES): 1 (If the expression is greater than 1.3 compared to the control, a grade of 11s given)
  P13 expression compared to control: 1.3
  P13 grade (NUMBER OF GENES): 1 (If the expression is greater than 1.3 compared to the control, a grade of 11s given)
  PDZK1iP1 NUMBER OF GENES grade: 1 (If the expression is greater than 1.3 compared to the control, a grade of 11s given)
  SENS >1.3 (number of genes): 13
  SERPINB3 NUMBER OF GENES grade: 1 (If the expression is greater than 1.3 compared to the control, a grade of 11s given)
  TOTAL SENS (number of genes): 13
10%, compared to the control
  BRAK expression: 0.5
  DHFR expression: 0.9
  HSP90 expression: 1.5
  IL18 expression: 1.3
  KRT4 expression: 1.4
  MELANA expression: 1.1
  PDZK1iP1 expression: 1.4
  SERPINB3 expression: 1.3
50%
  BRAK NUMBER OF GENES grade: 0 (if this expression is lower, the grade is 0)
  CTSS expression compared to control: 2.7
  CTSS grade (NUMBER OF GENES): 1 (If the expression is greater than 1.3 compared to the control, a grade of 11s given)
  CXCR1 expression compared to control: 2.7
  CXCR1 grade (NUMBER OF GENES): 1 (If the expression is greater than 1.3 compared to the control, a grade of 11s given)
  DAPK2 expression compared to control: 0.9
  DAPK2 grade (NUMBER OF GENES): 0 (if this expression is lower, the grade is 0)
  DEFB1 expression compared to control: 1.6
  DEFB1 grade (NUMBER OF GENES): 1 (If the expression is greater than 1.3 compared to the control, a grade of 11s given)
  DHFR NUMBER OF GENES grade: 0 (if this expression is lower, the grade is 0)
  EHF expression compared to control: 0.9
  EHF grade (NUMBER OF GENES): 0 (if this expression is lower, the grade is 0)
  FABP4 expression compared to control: 0.8
  FABP4 grade (NUMBER OF GENES): 0 (if this expression is lower, the grade is 0)
  HSP27 expression compared to control: 0.8
  HSP27 grade (NUMBER OF GENES): 0 (if this expression is lower, the grade is 0)
  HSP90 NUMBER OF GENES grade: 1 (If the expression is greater than 1.3 compared to the control, a grade of 11s given)
  IL18 NUMBER OF GENES grade: 0 (if this expression is lower, the grade is 0)
  IVL expression compared to control: 1.5
  IVL grade (NUMBER OF GENES): 1 (If the expression is greater than 1.3 compared to the control, a grade of 11s given)
  KRT4 NUMBER OF GENES grade: 0 (if this expression is lower, the grade is 0)
  MELANA NUMBER OF GENES grade: 0 (if this expression is lower, the grade is 0)
  NGAL expression compared to control: 0.6
  NGAL grade (NUMBER OF GENES): 0 (if this expression is lower, the grade is 0)
  P13 expression compared to control: 1.4
  P13 grade (NUMBER OF GENES): 1 (If the expression is greater than 1.3 compared to the control, a grade of 11s given)
  PDZK1iP1 NUMBER OF GENES grade: 0 (if this expression is lower, the grade is 0)
  SENS >1.3 (number of genes): 8
  SERPINB3 NUMBER OF GENES grade: 1 (If the expression is greater than 1.3 compared to the control, a grade of 11s given)
  TOTAL SENS (number of genes): 8
50%, compared to the control
  BRAK expression: 0.5
  DHFR expression: 0.9
  HSP90 expression: 2.0
  IL18 expression: 1.0
  KRT4 expression: 0.6
  MELANA expression: 1.1
  PDZK1iP1 expression: 1.0
  SERPINB3 expression: 1.7

Source: US9255295B2, “Method for evaluating the sensitizing potential of a test compound” (IMMUNOSEARCH, priority 2010, dated 2016)
